Test results: the supplement of paper PMC11451515

System: SEM cells
Experiment: cell viability relative to DMSO control; higher = less cytotoxic
Settings: 48 h
How it was run: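 Viability was expressed as a per-plate percentage of DMSO wells, with cell-free wells as background. Leukemia cells (NOMO1 or SEM at 500 cells/well, P12-Ichikawa at 1000 cells/well) were adapted for at least four passages in each medium and seeded in 1536-well plates (5 μl). Library compounds in DMSO were pin-dosed over an 11-point threefold series from 47 μM to 0.79 nM, and CellTiter-Glo One luminescence was read after 48 h at 37°C.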

[1] = HPLM + 10% dialyzed FBS, 0.000781 µM
[2] = HPLM + 10% dialyzed FBS, 0.00234 µM
[3] = HPLM + 10% dialyzed FBS, 0.00702 µM
[4] = HPLM + 10% dialyzed FBS, 0.0211 µM
[5] = HPLM + 10% dialyzed FBS, 0.0632 µM
[6] = HPLM + 10% dialyzed FBS, 0.19 µM
[7] = HPLM + 10% dialyzed FBS, 0.569 µM
[8] = HPLM + 10% dialyzed FBS, 1.71 µM
[9] = HPLM + 10% dialyzed FBS, 5.12 µM
[10] = HPLM + 10% dialyzed FBS, 15.4 µM
[11] = HPLM + 10% dialyzed FBS, 46.1 µM
[12] = RPMI 5 mM glucose + 10% FBS, 0.000781 µM
[13] = RPMI 5 mM glucose + 10% FBS, 0.00234 µM
[14] = RPMI 5 mM glucose + 10% FBS, 0.00702 µM
[15] = RPMI 5 mM glucose + 10% FBS, 0.0211 µM
[16] = RPMI 5 mM glucose + 10% FBS, 0.0632 µM
[17] = RPMI 5 mM glucose + 10% FBS, 0.19 µM
[18] = RPMI 5 mM glucose + 10% FBS, 0.569 µM
[19] = RPMI 5 mM glucose + 10% FBS, 1.71 µM
[20] = RPMI 5 mM glucose + 10% FBS, 5.12 µM
[21] = RPMI 5 mM glucose + 10% FBS, 15.4 µM
[22] = RPMI 5 mM glucose + 10% FBS, 46.1 µM
[23] = RPMI 5 mM glucose + 10% dialyzed FBS, 0.000781 µM
[24] = RPMI 5 mM glucose + 10% dialyzed FBS, 0.00234 µM
[25] = RPMI 5 mM glucose + 10% dialyzed FBS, 0.00702 µM
[26] = RPMI 5 mM glucose + 10% dialyzed FBS, 0.0211 µM
[27] = RPMI 5 mM glucose + 10% dialyzed FBS, 0.0632 µM
[28] = RPMI 5 mM glucose + 10% dialyzed FBS, 0.19 µM
[29] = RPMI 5 mM glucose + 10% dialyzed FBS, 0.569 µM
[30] = RPMI 5 mM glucose + 10% dialyzed FBS, 1.71 µM
[31] = RPMI 5 mM glucose + 10% dialyzed FBS, 5.12 µM
[32] = RPMI 5 mM glucose + 10% dialyzed FBS, 15.4 µM
[33] = RPMI 5 mM glucose + 10% dialyzed FBS, 46.1 µM

SMILES | cell viability [1] | cell viability [2] | cell viability [3] | cell viability [4] | cell viability [5] | cell viability [6] | cell viability [7] | cell viability [8] | cell viability [9] | cell viability [10] | cell viability [11] | cell viability [12] | cell viability [13] | cell viability [14] | cell viability [15] | cell viability [16] | cell viability [17] | cell viability [18] | cell viability [19] | cell viability [20] | cell viability [21] | cell viability [22] | cell viability [23] | cell viability [24] | cell viability [25] | cell viability [26] | cell viability [27] | cell viability [28] | cell viability [29] | cell viability [30] | cell viability [31] | cell viability [32] | cell viability [33]
C[C@]12CCC(=O)C=C1CC[C@@H]1[C@@H]2[C@@H](O)C[C@@]2(C)[C@H]1CC[C@]2(O)C(=O)CO | 108% | 96.8% | 98.1% | 118% | 104% | 107% | 121% | 121% | 108% | 87.6% | 99.2% | 89.7% | 82.7% | 99.3% | 91.4% | 92.1% | 102% | 94.9% | 97% | 86.1% | 68.2% | 73.4% | 99.2% | 95% | 114% | 102% | 102% | 112% | 96.7% | 94.2% | 92.5% | 70% | 62.7%
O=C(O)Cn1nnc(-c2cc(N3CCC(Oc4cc(F)ccc4Br)CC3)no2)n1 | 73.8% | 82.5% | 92.6% | 75.8% | 95.6% | 101% | 104% | 102% | 86.3% | 97.2% | 62.2% | 102% | 75.3% | 101% | 94.2% | 98% | 100% | 96.9% | 120% | 90.9% | 103% | 85.4% | 80.1% | 88.9% | 95.6% | 106% | 93.6% | 102% | 116% | 106% | 94% | 102% | 103%
CC[C@]12CC[C@H]3[C@@H](CCC/4=C/C(=O)CC[C@H]34)[C@@H]1\C=C/[C@@]2(O)C#C | 78.9% | 96.1% | 106% | 102% | 111% | 108% | 115% | 109% | 127% | 110% | 121% | 110% | 107% | 119% | 123% | 131% | 117% | 106% | 124% | 116% | 125% | 116% | 113% | 110% | 108% | 115% | 116% | 120% | 109% | 118% | 115% | 118% | 118%
COc1ccc([S+](=O)([O-])N(C(C)=O)c2ccccc2/C=C/c2cc[n+]([O-])cc2)cc1 | 124% | 122% | 133% | 141% | 125% | 125% | 124% | 55.4% | 26.1% | 26.5% | 23% | 122% | 131% | 115% | 126% | 97.1% | 103% | 111% | 39.1% | 20.3% | 18.4% | 13.4% | – | – | – | – | – | – | – | – | – | – | –
Cc1cnn(C)c1C(=O)Nc1cc(Nc2ccc3c(/C=C/c4ccccn4)n[nH]c3c2)ccc1F | 114% | 123% | 112% | 103% | 110% | 89.6% | 72.4% | 70.7% | 63.4% | 49.7% | 23.8% | 120% | 118% | 121% | 107% | 104% | 87.8% | 67% | 62.1% | 45.4% | 28.4% | 4.94% | 114% | 119% | 144% | 124% | 103% | 89.1% | 75.9% | 68.3% | 60.6% | 43% | 14.2%
CN1CCN(C2=Nc3cc(Cl)ccc3Nc3ccccc32)CC1 | 85.6% | 93.8% | 108% | 107% | 83.2% | 111% | 109% | 121% | 113% | 106% | 25.6% | 93% | 96.1% | 107% | 96.1% | 68.9% | 92.9% | 103% | 110% | 109% | 112% | 20.6% | 94.3% | 116% | 104% | 83.1% | 83.5% | 118% | 112% | 123% | 110% | 92% | 22.5%
CCC[S+]([O-])c1ccc2[nH]c(NC(=O)OC)nc2c1 (stereo not given) | 78.9% | 96.2% | 111% | 86.7% | 100% | 105% | 83.1% | 94.9% | 94.6% | 38.2% | 33.4% | 74.9% | 99.4% | 100% | 99.3% | 114% | 93.9% | 82% | 84.9% | 91.8% | 24.4% | 32.2% | 72.7% | 99.8% | 95.9% | 109% | 101% | 113% | 83.1% | 105% | 98.6% | 23.2% | 17.3%
CNCC(O)c1ccc(O)cc1 (stereo not given) | 59.8% | 87.8% | 85.6% | 80.2% | 90.1% | 95.6% | 87.9% | 86.8% | 95.3% | 99.5% | 93.6% | 96.6% | 95.4% | 128% | 103% | 112% | 105% | 113% | 104% | 122% | 114% | 111% | 75.6% | 97.3% | 85.7% | 93.5% | 101% | 108% | 100% | 99.4% | 114% | 99.8% | 87.1%
CN[C@@H](C)[C@H]1[C@H](O)C[C@@]2(C)[C@@H]3CC[C@H]4C(C)(C)[C@@H](NC)CC[C@@]45C[C@@]35CC[C@]12C | 73.4% | 83.6% | 53.9% | 85.5% | 90.1% | 95.8% | 83.2% | 98.4% | 42.5% | 93.4% | 66.3% | 81.8% | 83.2% | 56% | 95.2% | 82.7% | 83.3% | 109% | 68.9% | 40% | 100% | 103% | 72.7% | 75.4% | 66.4% | 83.4% | 87.3% | 99.2% | 109% | 93.9% | 44.3% | 99.4% | 89.8%
Cc1onc(-c2ccccc2Cl)c1C(=O)N[C@@H]1C(=O)N2[C@@H]1SC(C)(C)[C@@H]2C(=O)[O-] | 82.3% | 77.1% | 89.4% | 97.7% | 72% | 88.2% | 83.5% | 81.7% | 80.2% | 84.8% | 90% | 117% | 110% | 117% | 109% | 101% | 102% | 83.8% | 116% | 110% | 99.4% | 85.7% | 102% | 110% | 119% | 115% | 107% | 115% | 96.3% | 113% | 99.9% | 104% | 108%
CC(C)(C)NC(=O)Nc1cccc(Nc2ncc(F)c(NC(C)(C)CO)n2)c1 | 101% | 99.9% | 103% | 104% | 109% | 102% | 99.8% | 101% | 77.1% | 31.5% | 29.9% | 108% | 103% | 104% | 108% | 115% | 120% | 95.8% | 102% | 69.1% | 16.4% | 9.58% | 107% | 118% | 110% | 115% | 115% | 120% | 111% | 103% | 71.8% | 19.9% | 16%
CCN(CC)CCCCNc1ncc2cc(-c3cc(OC)cc(OC)c3)c(NC(=O)NC(C)(C)C)nc2n1 | 89.9% | 104% | 119% | 114% | 86.2% | 98.6% | 105% | 84% | 70.3% | 46.2% | 9.92% | 118% | 113% | 107% | 109% | 100% | 90.7% | 92.1% | 78.8% | 87% | 53.6% | 17% | 112% | 105% | 113% | 106% | 97.7% | 108% | 95.4% | 81% | 76.6% | 44.9% | 14.4%
Clc1ccc(-c2nc3sccn3c2/C=N/OCc2ccc(Cl)c(Cl)c2)cc1 | 127% | 122% | 101% | 119% | 124% | 111% | 115% | 88.5% | 100% | 101% | 117% | – | – | – | – | – | – | – | – | – | – | – | 131% | 122% | 111% | 137% | 120% | 134% | 135% | 104% | 113% | 110% | 115%
CCOC(=O)[C@@H](N)Cc1ccc(-c2cc(O[C@H](c3ccc(Cl)cc3-n3ccc(C)n3)C(F)(F)F)nc(N)n2)cc1.O=C(O)CNC(=O)c1ccccc1 | 100% | 129% | 93.3% | 133% | 127% | 107% | 126% | 125% | 115% | 110% | 45.1% | 96.4% | 112% | 82.2% | 110% | 114% | 103% | 98.6% | 113% | 97.1% | 115% | 17.1% | 106% | 132% | 111% | 118% | 102% | 119% | 120% | 111% | 109% | 117% | 24%
